For orientation: Km means the substrate concentration at which the rate is half of its maximum.

This test concerns the target T1, PfCRT^Dd2_H97Y_F145I (Plasmodium falciparum, UniProt Q8IBZ9, A220S/F145I/H97Y/I356T/K76T/M74I/N326S/N75E/Q271E/R371I).
T1 construct: expressed in transfected cells; host or cells: Xenopus laevis oocytes injected with in vitro transcribed RNA
T1 sequence (Q8IBZ9 1-424 M74I/N75E/K76T/H97Y/F145I/A220S/Q271E/N326S/I356T/R371I): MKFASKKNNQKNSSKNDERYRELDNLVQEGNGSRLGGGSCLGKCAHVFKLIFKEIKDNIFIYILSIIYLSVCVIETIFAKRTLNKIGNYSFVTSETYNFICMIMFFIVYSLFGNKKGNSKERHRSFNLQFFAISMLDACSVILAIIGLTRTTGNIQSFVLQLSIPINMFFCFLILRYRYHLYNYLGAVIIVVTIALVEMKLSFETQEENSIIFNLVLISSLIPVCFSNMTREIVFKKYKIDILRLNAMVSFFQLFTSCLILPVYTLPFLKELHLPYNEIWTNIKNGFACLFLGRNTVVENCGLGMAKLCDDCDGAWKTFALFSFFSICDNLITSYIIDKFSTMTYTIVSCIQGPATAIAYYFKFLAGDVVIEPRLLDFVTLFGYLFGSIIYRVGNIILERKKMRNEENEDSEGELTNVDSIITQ
Briefly: Radiolabeled drug uptake in X. laevis oocytes expressing PfCRT^Dd2_H97Y_F145I. Format: cell-based. As to conditions: for PfCRTDd2_H97Y_F145I-mediated PPQ transport / PfCRTDd2_H97Y_F145I-mediated CQ transport: individual replicates (Fig 11); for Hc, Hill coefficient / Vmax, maximal velocity of drug transport / Km: Hill equation fit, 10-500 μM drug, pH 6; for Km: read-out: KM, Michaelis constant. As to the method: Adult female X. laevis frogs (purchased from NASCO) were anesthetized by submersion in a solution of 0.3% (w/v) 3-amino benzoate methanesulfonate for 15 min. Sections of the ovary were surgically removed and placed in Ca^2+-free ND96 buffer supplemented with 0.1% collagenase D (w/v; Roche), 0.5% BSA (w/v) and 9 mM Na2HPO4 at 18°C for 14–16 h while gently shaking. The oocytes were then washed several times with ND96 buffer (5 mM HEPES, pH 7.5, 96 mM NaCl, 2 mM KCl, 1.8 mM CaCl2, 1 mM MgCl2), supplemented with […] gentamycin. Healthy-looking stage V-VI oocytes were manually selected and randomly grouped for injection. A codon-optimized coding sequence of PfCRT was subcloned into the pSP64T expression vector and subsequently linearized using the restriction endonuclease BamHI or SalI (New England Biolabs GmbH). RNA for injection was transcribed in vitro using the mMESSAGE mMACHINE SP6 Transcription kit (Ambion), diluted with nuclease-free water to a final concentration of 0.6 μg/μL and stored at -80°C. RNA was injected using precision-bore glass capillary tubes (3.5-inch glass capillaries; Drummond Scientific Co.), which were pulled on a vertical puller (P-87 Flaming/Brown micropipette puller, Sutter Instrument Co.) and graduated. The micropipettes were connected to a microinjector (Nanoject II Auto-Nanoliter Injector, Drummond Scientific Co.). Injection was conducted under stereomicroscopic control. 50 nL of nuclease-free water alone (control oocytes) or 50 nL of nuclease-free water containing 30 ng of RNA was injected per oocyte. Injected oocytes were kept for 72 h at 18°C in ND96 buffer with two daily buffer changes before being used for further experiments.
Drug transport assays were performed as previously described. Briefly, measurements of radiolabeled drug uptake were made over 1 h, unless otherwise specified. […] Where specified, one or more unlabeled drugs were also present at the indicated concentrations. […] The uptake assays were terminated by removing the oocytes from the reaction medium and washing them three times with 2 mL of ice-cold ND96 buffer. Each oocyte was transferred to a separate scintillation vial and lysed by the addition of 200 μL of a 5% SDS solution. The radioactivity in the sample was measured using a liquid scintillation analyser Tri-Carb 4910 TR (PerkinElmer). Water-injected oocytes were analyzed in parallel as a negative control. The buffer from each condition was measured in duplicate in parallel to each experiment to transform counts per minute into pmol of drug. Drug uptake attributable to PfCRT was determined by subtracting the background uptake from water-injected oocytes from that of PfCRT-expressing oocytes. In all cases, at least three independent experiments were performed on oocytes from different frogs, and for each condition in an experiment, measurements were made from 10 oocytes per treatment.

Where “and” joins values, the source holds several entries; their conditions need not be identical. Equal entries are not always repeated.

For the compound `Clc1ccc2c(N3CCN(CCCN4CCN(c5ccnc6cc(Cl)ccc56)CC4)CC3)ccnc2c1` [PPQ, piperaquine], the “Hc, Hill coefficient” value is 2.0 ± 0.3; the “Vmax, maximal velocity of drug transport” value is 131 ± 3 pmol oocyte^-1 h^-1 and 131 ± 10 pmol oocyte^-1 h^-1; the Michaelis-Menten constant (Km) stood at 170 ± 20 µM. In addition, the “PfCRTDd2_H97Y_F145I-mediated PPQ transport” value (10 µM PPQ) was 4.45 pmol oocyte-1 h-1 and 2.50 pmol oocyte-1 h-1 and 6.51 pmol oocyte-1 h-1. For the same compound, where the note is “50 µM PPQ”, the “PfCRTDd2_H97Y_F145I-mediated PPQ transport” value was 12.64 pmol oocyte-1 h-1 and 8.74 pmol oocyte-1 h-1 and 25.96 pmol oocyte-1 h-1 and 14.99 pmol oocyte-1 h-1 and 20.94 pmol oocyte-1 h-1. Also, the “PfCRTDd2_H97Y_F145I-mediated PPQ transport” value (100 µM PPQ) was 28.86 pmol oocyte-1 h-1 and 38.51 pmol oocyte-1 h-1 and 10.62 pmol oocyte-1 h-1 and 34.53 pmol oocyte-1 h-1. Further, the “PfCRTDd2_H97Y_F145I-mediated PPQ transport” value (200 µM PPQ) was 112.27 pmol oocyte-1 h-1 and 50.98 pmol oocyte-1 h-1 and 60.86 pmol oocyte-1 h-1 and 71.21 pmol oocyte-1 h-1 and 85.02 pmol oocyte-1 h-1. The “PfCRTDd2_H97Y_F145I-mediated PPQ transport” value (300 µM PPQ) is 111.40 pmol oocyte-1 h-1 and 72.67 pmol oocyte-1 h-1 and 112.81 pmol oocyte-1 h-1 and 115.57 pmol oocyte-1 h-1. The “PfCRTDd2_H97Y_F145I-mediated PPQ transport” value (400 µM PPQ) was 94.84 pmol oocyte-1 h-1 and 111.83 pmol oocyte-1 h-1 and 131.05 pmol oocyte-1 h-1. For the same compound, for the setting “500 µM PPQ”, the “PfCRTDd2_H97Y_F145I-mediated PPQ transport” value was 81.84 pmol oocyte-1 h-1 and 171.24 pmol oocyte-1 h-1 and 123.65 pmol oocyte-1 h-1 and 87.38 pmol oocyte-1 h-1.
Consider `CCN(CC)CCCC(C)Nc1ccnc2cc(Cl)ccc12` (centres unmarked) [CQ, chloroquine], for which the “Hc, Hill coefficient” value is listed as 1.6 ± 0.2; the “Vmax, maximal velocity of drug transport” value is 35 ± 1 pmol oocyte^-1 h^-1 and 35 ± 4 pmol oocyte^-1 h^-1; the Km worked out at 240 ± 40 µM. For the same compound, where the note is “10 µM CQ”, the “PfCRTDd2_H97Y_F145I-mediated CQ transport” value is 0.56 pmol oocyte-1 h-1 and 0.57 pmol oocyte-1 h-1 and 0.94 pmol oocyte-1 h-1. Moreover, the “PfCRTDd2_H97Y_F145I-mediated CQ transport” value (50 µM CQ) was 1.87 pmol oocyte-1 h-1 and 2.38 pmol oocyte-1 h-1 and 2.20 pmol oocyte-1 h-1 and 4.15 pmol oocyte-1 h-1. Besides, the “PfCRTDd2_H97Y_F145I-mediated CQ transport” value (100 µM CQ) is 6.01 pmol oocyte-1 h-1 and 3.76 pmol oocyte-1 h-1 and 7.81 pmol oocyte-1 h-1 and 7.54 pmol oocyte-1 h-1 and 7.03 pmol oocyte-1 h-1. The “PfCRTDd2_H97Y_F145I-mediated CQ transport” value (200 µM CQ) was 12.93 pmol oocyte-1 h-1 and 22.31 pmol oocyte-1 h-1 and 9.72 pmol oocyte-1 h-1 and 19.44 pmol oocyte-1 h-1 and 15.86 pmol oocyte-1 h-1. Further, for the setting “300 µM CQ”, the “PfCRTDd2_H97Y_F145I-mediated CQ transport” value was 22.26 pmol oocyte-1 h-1 and 28.62 pmol oocyte-1 h-1 and 11.32 pmol oocyte-1 h-1 and 17.61 pmol oocyte-1 h-1. The “PfCRTDd2_H97Y_F145I-mediated CQ transport” value (400 µM CQ) is 20.46 pmol oocyte-1 h-1 and 24.94 pmol oocyte-1 h-1 and 27.66 pmol oocyte-1 h-1. Moreover, the “PfCRTDd2_H97Y_F145I-mediated CQ transport” value (500 µM CQ) is 23.29 pmol oocyte-1 h-1 and 35.24 pmol oocyte-1 h-1 and 26.54 pmol oocyte-1 h-1 and 24.00 pmol oocyte-1 h-1.
